Assay results taken from paper PMC10552892, “Ebselen oxide and derivatives are new allosteric HER2 inhibitors for HER2‐positive cancers” (Molecular Oncology, 2023).

Assays:
SKBR3 [1] = assay: MTT proliferation assay, SKBR3; assay type: cell-based, human; settings: 10 μM
Method: Fig. 2 Ebselen oxide inhibits HER2 activation, cell proliferation, and anchorage‐independent growth of HER2^+ breast cancer cells. […] Blot and quantification of a representative experiment are shown out of 4 (A), 5 (B), or 2 (C) independent experiments. (D–F) Proliferation curves of HER2‐positive (SKBR3, D or BT474, E) or HER2‐negative (MDA‐MB‐231, F) breast cancer cell lines treated with vehicle or 10 μM ebselen oxide assessed by MTT assay. […] (G–I) Anchorage‐independent growth of SKBR3 (G), BT474 (H), or MDA‐MB‐231 (I) cells treated with vehicle or 10 μM ebselen oxide. […] Scale bars are […].

SKOV3 = assay: Proliferation of SKOV3 cells; assay type: cell-based, human; settings: ebselen oxide 7–10 μM, AG1478 5 μM
HER2 (pY1248) in NCI-N87 = molecular target: T1, HER2 (pY1248) in NCI-N87 (Homo sapiens, UniProt P04626); assay: HER2 activation in NCI-N87 gastric cancer cells, western blot; assay type: cell-based
T1 construct: host or cells: NCI-N87
T1 sequence (P04626 23-1255): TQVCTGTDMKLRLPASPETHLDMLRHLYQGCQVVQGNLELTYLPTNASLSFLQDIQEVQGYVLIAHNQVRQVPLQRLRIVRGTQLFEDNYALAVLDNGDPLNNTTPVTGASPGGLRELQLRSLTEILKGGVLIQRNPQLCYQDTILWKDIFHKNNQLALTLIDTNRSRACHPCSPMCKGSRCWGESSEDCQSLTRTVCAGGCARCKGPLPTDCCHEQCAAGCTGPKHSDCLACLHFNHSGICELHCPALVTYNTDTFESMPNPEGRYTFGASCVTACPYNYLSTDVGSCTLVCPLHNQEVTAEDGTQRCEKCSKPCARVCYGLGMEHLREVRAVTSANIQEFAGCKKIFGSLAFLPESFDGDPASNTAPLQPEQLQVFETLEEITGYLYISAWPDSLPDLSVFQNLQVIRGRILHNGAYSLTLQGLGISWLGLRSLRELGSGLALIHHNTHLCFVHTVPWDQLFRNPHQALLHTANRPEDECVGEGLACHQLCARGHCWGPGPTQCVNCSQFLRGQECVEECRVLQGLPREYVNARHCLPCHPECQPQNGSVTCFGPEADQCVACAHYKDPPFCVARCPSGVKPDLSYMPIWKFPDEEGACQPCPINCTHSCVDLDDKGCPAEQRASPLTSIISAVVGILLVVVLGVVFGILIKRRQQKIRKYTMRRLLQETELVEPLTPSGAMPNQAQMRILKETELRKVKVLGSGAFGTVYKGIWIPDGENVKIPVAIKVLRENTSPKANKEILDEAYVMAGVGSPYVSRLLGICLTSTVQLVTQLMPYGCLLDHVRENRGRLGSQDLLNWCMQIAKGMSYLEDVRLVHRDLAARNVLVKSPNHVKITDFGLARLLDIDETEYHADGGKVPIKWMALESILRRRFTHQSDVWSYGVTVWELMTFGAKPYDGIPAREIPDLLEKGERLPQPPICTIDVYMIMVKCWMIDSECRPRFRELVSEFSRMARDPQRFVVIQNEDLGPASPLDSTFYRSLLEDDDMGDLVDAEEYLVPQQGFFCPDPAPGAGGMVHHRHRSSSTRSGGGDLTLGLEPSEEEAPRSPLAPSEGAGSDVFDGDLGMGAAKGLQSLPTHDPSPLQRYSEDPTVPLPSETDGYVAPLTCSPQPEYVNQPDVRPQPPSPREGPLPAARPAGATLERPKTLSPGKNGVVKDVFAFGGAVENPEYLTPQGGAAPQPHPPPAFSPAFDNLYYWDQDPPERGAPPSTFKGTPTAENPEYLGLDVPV
Method: (A-C) HER2-positive […] (SKBR3, A; NCI-N87, B; BT474, C) treated or not with Ebselen
indicated, were analyzed by western blot to evaluate HER2 activation status using antibodies directed
Proliferation was assessed by Incucyte during 4 days.

[2] = molecular target: T2, HER2 in heterodimers with EGFR/HER1 (Homo sapiens, UniProt P04626); assay: Ligand-dependent HER2 activation in HBMECs upon EGF stimulation (western blot); assay type: cell-based; settings: 10 μM, 50 ng/ml EGF 5 min
T2 construct: in noncancer cells expressing normal levels of HER2; endogenous in cells; host or cells: HBMEC
T2 sequence (P04626 23-1255, one chain of several): as the sequence (P04626 23-1255) above

SKBR3 [3] = assay: Incucyte proliferation, single agents and combinations, SKBR3; assay type: cell-based; settings: Homo sapiens, SK-BR-3, 96 h; read-out: Reduction/inhibition of cell proliferation
Method: (A–C) Proliferation curves of HER2‐positive (SKBR3, A; BT474, B; NCI‐N87, C) cancer cell lines treated or not with ebselen oxide (10 μM), lapatinib (10–1000 nM), or combination of these agents, as indicated. Proliferation was assessed overtime by Incucyte during 4 days. Data are mean ± SD (n = 8–12) of a representative experiment out of 4 (A), 3 (B), or 2 (C) independent experiments. […] Proliferation was assessed by Incucyte during 4 days. […] Scale bars are […].

NCI-N87 = assay: Proliferation of NCI-N87 cells; assay type: cell-based, human; settings: ebselen oxide 7–10 μM, AG1478 5 μM
Method: Fig. 3 Ebselen oxide inhibits HER2 activation and HER2‐dependent proliferation in gastric and ovarian HER2^+ cancer cells. (A) HER2‐positive NCI‐87 gastric cancer cells were treated with ebselen oxide (0–20 μM) for 24 h, lysed, and analyzed by western blot using anti‐pY1248‐HER2, HER2, and β‐tubulin antibodies. A representative western blot is shown out of 4 independent experiments. (B) HER2‐positive SKOV3 ovarian cancer cells were treated with ebselen oxide (0–10 μM) for 24 h, lysed, and analyzed by western blot using anti‐pY1248‐HER2, HER2, and ezrin antibodies. A western blot is shown (n = 1). (C, D) Proliferation curves of NCI‐N87 gastric (C) or SKOV3 ovarian (D) cancer cells treated with vehicle or 7–10 μM ebselen oxide measured by MTT assay. Data are mean ± SEM (n = 9–12) of three independent experiments.
Supplementary figure 4: NCI-N87 and SKOV3 cancer cell lines are addicted to the HER2 pathway
(A) NCI-N87 cells were treated (+) or not (-) with a non-specific HER2 inhibitor AG1478 (5 µM). Whole cell lysates were analyzed by western blot with pY1248 HER2, HER2 and pERK antibodies.
(B) SKOV3 cells were treated (+) or not (-) with a non-specific HER2 inhibitor AG1478 (5 µM). Whole cell lysates were analyzed by western blot with pY1248 HER2, HER2, pERK or beta-tubulin antibodies.
(C) Proliferation curves of NCI-N87 treated or not with AG1478 (5 µM). Data are mean ± sem (n=4-6). 2- […]

O=C1c2ccccc2[Se](=O)N1c1ccccc1 (stereo not shown) [Ebselen oxide, ebselen oxide]
Reduction of proliferation rate (SKBR3 [1]): 35% | Effect on proliferation (SKOV3): reduced proliferation | Effect on HER2 activation (HER2 (pY1248) in NCI-N87; ebselen oxide 0–20 μM 24 h, AG1478 5 μM): strongly blocked | Effect on HER2 activation, single agents and combination (HER2 (pY1248) in NCI-N87; ebselen oxide 10 μM, lapatinib 10 nM): partially decreased | Physiological activation of HER2 in heterodimers and downstream AKT and ERK activation upon EGF [2]: did not alter | inhibition at 10 µM (SKBR3 [3]): 64% | Effect on proliferation (NCI-N87): reduced proliferation
